From patent publication US20150238626A1, “RECEPTOR LIGAND LINKED CYTOTOXIC MOLECULES” (ONTOCHEM GMBH, priority 2012, published 2015)
Like-named read-outs stand apart in the source and are kept apart here. Blank lines part the entries; values can stand above or below the compound they belong to.

What was measured:
[1] = tested on: caspases 3 and 7 in breast cancer cell lines; experiment: Apoptosis assay, effector caspases 3 and 7; type: cell-based, human; settings: several breast cancer cell lines
Protocol: Compound-mediated induction of apoptosis was examined using comercially available luminescent caspase assays (Promega, Mannheim, Germany). Human cancer and non-cancer cell lines (primarily breast cancer) were seeded with densities depending on the incubation time into 96-well plates (5,000-20,000 cells per well for 48 h incubations; 15,000-40,000 cells per well for 16-24 h incubations), and were allowed to adhere for 24 h. Subsequently, the compounds—dissolved to appropriate concentrations in medium—were added to the cells in 70 μL per well. Cells were incubated for 16-48 h under standard growth conditions. For the last hour of incubation, 10 μL/well of 8× resazurin solution (400 μM) were added in order to multiplex the caspase activities with the cell number/cell viability. When the incubation was finished, conversion of resazurin to resorufin was measured as described above. […] Luminescence read-out was done using a Synergy 2 multiwell plate reader (BioTek, Bad Friedrichshall, Germany).
Cells were treated with the indicated compound concentrations for 24 h (A, C) and 48 h (B, D), respectively. Subsequently, activation of effector caspases 3/7 was measured using a luminescence-based caspase-Glo™ assay kit (Promega), and cell viability was fluorimetrically detected using a Resazurin-based cell viability assay. […]

MCF-7 = experiment: cells; type: cell-based, human; settings: 72 h compound treatment
Protocol: (§1) To evaluate the anti-proliferative and cytotoxic effect, respectively, of the compounds, a fluorometric resazurin-based cell viability assay was used. Human cancer and non-cancer cell lines (primarily breast cancer) were seeded with low densities into 96-well plates (1,500-20,000 cells per well), and were allowed to adhere for 24 h. Subsequently, the compounds—dissolved to appropriate concentrations in medium—were added to the cells and incubated for 4-72 h. In case the compound treatment was shorter than 72 h, the incubation solution was discarded, cells were rinsed once with cell culture medium and were allowed to proliferate in compound-free medium until 72 h were reached. Subsequently, medium was replaced by 50 μM resazurin in medium, and the cells were incubated for 2 h. Finally, the conversion of resazurin to resorufin by viable, metabolically active cells was measured using a Synergy 2 multiwell plate reader (BioTek, Bad Friedrichshall, Germany) with 540 nm excitation and 590 nm emission filter setting.
(§2) The cytostatic/cytotoxic effects of the new molecules according to this invention were evaluated by using a fluorometric cell proliferation assay. A panel of cell lines (most of them breast cancer) were treated for 4-72 hours with compound. The fluorometric read-out for cell viability was done after 72 hours in any case.

[2] = tested on: breast cancer cell lines (MCF-7, MDA-MB-468); experiment: Proteome analysis by SILAC; type: cell-based, human; settings: various breast cancer cell lines
Protocol: SILAC was used for the examination of compound-mediated protein deregulations in the cells. In a first step, the incorporation rate of ^13C-labeled L-arginine (“heavy” medium) was determined for the used cell lines.
After finished incubation, the cells were harvested and lysed. […] The gel was cut into gel slices and in-gel digested with trypsin. The samples were measured with a LTQ Orbitrap Velos (Thermo Scientific) coupled with a nano-HPLC. The resulting mass spec-data were analyzed using the MaxQuant software.

184B5 = experiment: Fluorometric resazurin-based cell proliferation assay, 184B5; settings: Homo sapiens, 72 h compound treatment
Protocol: as §1, §2

T-47D = experiment: Fluorometric resazurin-based cell proliferation assay, T-47D; design: species or system human; settings: for IC50: Homo sapiens, T47D, read-out: IC50 T-47D
Protocol: as §1, §2

MDA-MB-231 = experiment: Fluorometric resazurin-based cell proliferation assay, MDA-MB-231; settings: Homo sapiens
Protocol: as §1, §2

MDA-MB-468 = experiment: Fluorometric resazurin-based cell proliferation assay, MDA-MB-468; settings: Homo sapiens, read-out: IC50 MDA-MB-468
Protocol: as §1, §2

HT-29 = experiment: Fluorometric resazurin-based cell proliferation assay, HT-29; design: species or system human; settings: 72 h compound treatment
Protocol: as §1, §2

[3] = tested on: panel of cell lines (most of them breast cancer); experiment: Cell proliferation assay, statements over the panel of cell lines; type: cell-based, human; settings: 72 h treatment
Protocol: as §1, §2

SK-N-MC = experiment: Fluorometric resazurin-based cell proliferation assay, SK-N-MC; settings: Homo sapiens, 72 h compound treatment
Protocol: as §1, §2

HEK293 = experiment: Fluorometric resazurin-based cell proliferation assay, HEK293; settings: Homo sapiens, 72 h compound treatment
Protocol: as §1, §2

[4] = MDA-MB-231, 72 h, read-out: IC50 MDA-MB-231

Compound: CCC(C)[C@H](NC(=O)[C@H]1CCCCN1C)C(=O)N(C)[C@H](C[C@@H](OC(C)=O)c1nc(C(=O)N[C@@H](Cc2ccc(F)cc2)C[C@H](C)C(=O)NCCSSc2ccccn2)cs1)C(C)C (stereo partly drawn) [OC 169]
induction of apoptosis (caspase 3/7 activity) [1]: induction of apoptotic cell death mechanisms | IC50 (MCF-7; Homo sapiens, MCF7): 18.4 nM | regulation of protein expression (SILAC) [2]: comparable protein regulations | IC50 (184B5): 26.1 nM | IC50 (T-47D; 72 h): 18.7 nM | IC50 (MDA-MB-231; [4]): 31 nM | IC50 (MDA-MB-468; MDA-MB-468, 72 h): 18.7 nM

Compound: CCC(C)[C@H](NC(=O)[C@H]1CCCCN1C)C(=O)N(C)[C@H](C[C@@H](OC(C)=O)c1nc(C(=O)N[C@@H](Cc2ccc(F)cc2)C[C@H](C)C(=O)O)cs1)C(C)C (stereo partly drawn) [OC 501]
IC50 (HT-29; Homo sapiens, HT-29): 1.2 nM | IC50 (MCF-7; Homo sapiens, MCF7): 4.1 nM | IC50 (T-47D; 72 h): 5.4 nM | IC50 (MDA-MB-231; [4]): 7.2 nM | IC50 (MDA-MB-468; MDA-MB-468, 72 h): 3.6 nM

Compound: CCCO[C@H](C[C@H](C(C)C)N(C)C(=O)[C@@H](NC(=O)[C@H]1CCCCN1C)C(C)CC)c1nc(C(=O)N[C@@H](Cc2ccccc2)C[C@H](C)C(=O)O)cs1 (stereo partly drawn) [OC 503]
IC50 (HT-29; Homo sapiens, HT-29): 0.8 nM | IC50 (MCF-7; Homo sapiens, MCF7): 4.2 nM | IC50 (T-47D; 72 h): 8.3 nM | IC50 (MDA-MB-231; [4]): 10.9 nM | IC50 (MDA-MB-468; MDA-MB-468, 72 h): 8.2 nM

Compound: CCC(C)[C@H](NC(=O)[C@H]1CCCCN1C)C(=O)N(C)[C@H](C[C@@H](OC(C)=O)c1nc(C(=O)N[C@@H](Cc2ccccc2)C[C@H](C)C(=O)O)cs1)C(C)C (stereo partly drawn) [OC 509]
IC50 (MCF-7; Homo sapiens, MCF7): 0.34 nM

Compound: CCCO[C@H](C[C@H](C(C)C)N(CCC)C(=O)[C@@H](NC(=O)[C@H]1CCCCN1C)C(C)CC)c1nc(C(=O)N[C@@H](Cc2ccc(O)cc2)C[C@H](C)C(=O)O)cs1 (stereo partly drawn) [OC 515]
IC50 (184B5): 0.09 nM | IC50 (T-47D; 72 h): 0.09 nM | higher efficacy compared to the reference compound Paclitaxel (T-47D; T-47D cells, 72 h treatment): up to 300 fold

Compound: CCCO[C@H](C[C@H](C(C)C)N(CCC)C(=O)[C@@H](NC(=O)[C@H]1CCCCN1C)C(C)CC)c1nc(C(=O)N[C@@H](Cc2ccc(O)cc2)C[C@H](C)C(=O)NCCSSc2ccccn2)cs1 (stereo partly drawn) [OC 516]
IC50 (T-47D; 72 h): 0.2 nM

Compound: CCC(C)[C@H](NC(=O)[C@H]1CCCCN1C)C(=O)N(COC(=O)CC(C)C)[C@H](C[C@@H](OC(C)=O)c1nc(C(=O)N[C@@H](Cc2ccc(O)cc2)C[C@H](C)C(=O)NCCSSc2ccccn2)cs1)C(C)C (stereo partly drawn) [OC 517]
activity compared to Paclitaxel [3]: several folds more active than Paclitaxel | IC50 (SK-N-MC): 1.1 nM | IC50 (HEK293): 5.9 nM | IC50 (MCF-7; Homo sapiens, MCF7): 1.9 nM | IC50 (184B5): 6.2 nM | IC50 (T-47D; 72 h): 4.9 nM | IC50 (MDA-MB-231; [4]): 1.6 nM | IC50 (MDA-MB-468; MDA-MB-468, 72 h): 1 nM

IC50 (MCF-7; Homo sapiens, MCF7): 25.5 nM | IC50 (T-47D; 72 h compound treatment): 30.7 nM | IC50 (MDA-MB-231; MDA-MB-231, read-out: IC50 MDA-MB-231, 72 h compound treatment): 35.1 nM | IC50 (MDA-MB-468; MDA-MB-468, 72 h compound treatment): 31.1 nM
Compound: CC(=O)O[C@H]1C(=O)[C@@]2(C)[C@H]([C@H](OC(=O)c3ccccc3)[C@]3(O)C[C@H](OC(=O)[C@H](O)[C@@H](NC(=O)c4ccccc4)c4ccccc4)C(C)=C1C3(C)C)[C@]1(OC(C)=O)CO[C@@H]1C[C@@H]2O [Paclitaxel, reference compound]

Compound: CC[C@H](C)[C@H](NC(=O)[C@H]1CCCCN1C)C(=O)N(COC(=O)CC(C)C)[C@H](C[C@@H](OC(C)=O)c1nc(C(=O)N[C@@H](Cc2ccc(O)cc2)C[C@H](C)C(=O)O)cs1)C(C)C [Tubulysin A, reference compound]
IC50 (HT-29): 0.75 nM | IC50 (MCF-7): 0.6 nM
